This passage reports IC50 results from patent US20070043079A1, “Heterocyclic compound containing nitrogen atom and use thereof” (priority 2003, published 2007).

The assay has as its target T1, human CCR5 (Homo sapiens, UniProt P51681).
T1 construct: expressed in transfected cells
Put plainly: Inhibition test on the binding of RANTES to CCR5 (RANTES-induced transient increase of Ca ion) in CCR5/CHO cells. The format is cell-based. Here is the method: The whole procedures were carried out by preparing gene high expressing cells under basic genetic engineering methods by utilizing conventional methods. Also, as to the methods for the measurement in the present invention, improvement of measurement accuracy and/or modification of measurement sensitivity were adopted in order to evaluate the compound of the present invention. Detailed methods for the experiment are illustrated below.
(1) Isolation of Human CCR5 Genes
Human placental cDNA was prepared using Marathon cDNA amplification kit (Clontech). […]
Thus established human CCR5 stable over-expressing CHO cells (CCR5/CHO cells) were suspended in Ham's F-12 medium containing FBS (10%) and dispensed in […] portions into a 96 well plate. […] Transient increase in the intracellular Ca^2+ concentration induced by the human RANTES was measured using a Ca^2+ detector for 96 well use (Hamamatsu Photonics), and inhibition ration (%) of the test compound was calculated by the following calculation formula. Inhibition ratio=(Ec−Ea)/Ec×100 • Ec: measured value of Ca^2+ transient increase by RANTES • Ea: measured value of Ca^2+ transient increase by RANTES when a test compound was added

Counter-ions that a name gives are not always drawn.

T1 sequence (P51681 whole entry): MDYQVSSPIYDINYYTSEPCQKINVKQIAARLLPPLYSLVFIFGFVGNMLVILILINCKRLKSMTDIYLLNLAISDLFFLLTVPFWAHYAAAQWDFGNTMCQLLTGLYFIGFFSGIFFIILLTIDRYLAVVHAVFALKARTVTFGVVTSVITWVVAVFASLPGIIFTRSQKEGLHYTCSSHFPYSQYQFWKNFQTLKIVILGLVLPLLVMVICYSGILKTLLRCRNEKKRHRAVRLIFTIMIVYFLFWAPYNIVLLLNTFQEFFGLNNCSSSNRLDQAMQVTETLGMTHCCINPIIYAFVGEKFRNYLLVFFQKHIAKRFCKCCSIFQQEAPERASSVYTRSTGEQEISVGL

In turn, `COc1ccc(CN2CCC(c3ccc(CNC(=O)c4ccc(Cl)cc4)cc3)CC2)cc1OC` [Example 1, 4-chloro-N-{4-[1-(3,4-dimethoxybenzyl)piperidin-4-yl]benzyl}benzamide hydrochloride] came in with an IC50 of 4.16 µM. This lies in the single-digit micromolar range.
